Measurements from ChEMBL document CHEMBL1201862, “PubChem BioAssay data set” (2004).
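A five-concentration, 48-hour dose response in 96-well plates underlies each endpoint, interpolated linearly between surrounding concentrations. Here, GI50 denotes the concentration required for 50% inhibition of growth.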 Active and inactive are the calls of the source. Rule as the data show it: active = GI50 up to about 1.1 µM and inactive = higher.

How the values were obtained:
Test in all cases: DTP human tumour cell line panel, 48 h
SNB-75 = tested on: SNB-75
LOX IMVI = tested on: LOX IMVI
OVCAR-5 = tested on: OVCAR-5
KM12 = tested on: KM12
A498 = tested on: A498
SNB-19 = tested on: SNB-19
SW-620 = tested on: SW-620
SK-MEL-5 = tested on: SK-MEL-5
HOP-92 = tested on: HOP-92
CCRF-CEM = tested on: CCRF-CEM
SK-MEL-2 = tested on: SK-MEL-2
SN12C = tested on: SN12C
RXF 393 = tested on: RXF 393
UACC-257 = tested on: UACC-257
OVCAR-3 = tested on: OVCAR-3
UO-31 = tested on: UO-31
IGROV-1 = tested on: IGROV-1

Measured: GI50

Sc1nnc(-c2cccnc2)[nH]1
inactive: SNB-75 > 100 µM | LOX IMVI > 100 µM | OVCAR-5 > 100 µM | KM12 > 100 µM | A498 > 100 µM | SNB-19 > 100 µM | SW-620 > 100 µM | SK-MEL-5 > 100 µM | HOP-92 > 100 µM | CCRF-CEM > 100 µM | SK-MEL-2 > 100 µM | SN12C > 100 µM | RXF 393 > 100 µM | UACC-257 > 100 µM

Cc1ccc(N2C(=O)/C(=C3\Sc4c(nc(C)[nH]c4=O)N3c3ccccc3)SC2=S)cc1
inactive: SNB-75 16.1 µM | OVCAR-3 18.4 µM | LOX IMVI 15.5 µM | OVCAR-5 > 100 µM | A498 34.4 µM | SNB-19 37.3 µM | UO-31 29.2 µM | SW-620 > 100 µM | SK-MEL-5 > 100 µM | HOP-92 41.5 µM | CCRF-CEM 44.6 µM | IGROV-1 60.3 µM | SK-MEL-2 20.3 µM | SN12C > 100 µM | UACC-257 > 100 µM

COC(=O)C1=CC2CC1C(S(=O)(=O)c1ccccc1)C2S(=O)(=O)c1ccccc1 (stereo not drawn)
inactive: OVCAR-3 7.23 µM | LOX IMVI 13.7 µM | OVCAR-5 14.7 µM | A498 17.6 µM | SNB-19 > 100 µM | UO-31 14.3 µM | SW-620 4.59 µM | SK-MEL-5 16.9 µM | HOP-92 15.1 µM | CCRF-CEM 2.92 µM | IGROV-1 32.7 µM | SN12C 14 µM | UACC-257 15.2 µM

CCOC(=O)/C(=C/c1cccc(OC)c1)N(CC)CC
inactive: OVCAR-3 > 100 µM | LOX IMVI > 100 µM | OVCAR-5 > 100 µM | KM12 > 100 µM | A498 > 100 µM | SNB-19 > 100 µM | UO-31 > 100 µM | SW-620 > 100 µM | SK-MEL-5 > 100 µM | HOP-92 > 100 µM | CCRF-CEM > 100 µM | IGROV-1 > 100 µM | SK-MEL-2 > 100 µM | UACC-257 > 100 µM

C=CCCCCCC(O)C(O)C/C=C\C/C=C\CC (stereo not drawn)
inactive: SNB-75 > 18.8 µM | OVCAR-3 > 18.8 µM | LOX IMVI > 15.4 µM | OVCAR-5 > 18.8 µM | KM12 > 18.8 µM | SNB-19 > 18.8 µM | UO-31 > 18.8 µM | SW-620 > 18.8 µM | SK-MEL-5 > 17.5 µM | HOP-92 > 18.8 µM | CCRF-CEM > 18.8 µM | IGROV-1 > 18.8 µM | SK-MEL-2 > 18.8 µM | SN12C > 18.8 µM | RXF 393 > 18.8 µM | UACC-257 > 18.8 µM

NC(=O)CCC(Nc1c2ccccc2nc2ccccc12)C(=O)O (stereo not drawn)
inactive: SNB-75 > 100 µM | OVCAR-3 56.8 µM | LOX IMVI 63.7 µM | OVCAR-5 > 100 µM | KM12 > 100 µM | SW-620 > 100 µM | HOP-92 41.1 µM | CCRF-CEM > 100 µM | SK-MEL-2 > 100 µM | SN12C > 100 µM | RXF 393 > 100 µM | UACC-257 65.8 µM

COc1cccc2c(SCC(=O)Nc3ccccc3-c3ccccc3NC(=O)CSc3c4ccccc4nc4c(OC)cccc34)c3ccccc3nc12
inactive: SNB-75 17.5 µM | OVCAR-3 > 100 µM | OVCAR-5 > 100 µM | KM12 > 100 µM | SNB-19 > 100 µM | SK-MEL-5 > 100 µM | CCRF-CEM > 100 µM | IGROV-1 43.1 µM | SK-MEL-2 > 100 µM | SN12C > 100 µM | RXF 393 57.9 µM

CCOC(=O)c1cnc2[nH]c(=O)c3ccccc3n2c1=O
inactive: SNB-75 > 100 µM | OVCAR-3 > 100 µM | LOX IMVI > 100 µM | OVCAR-5 > 100 µM | KM12 > 100 µM | SNB-19 > 100 µM | UO-31 > 100 µM | SW-620 > 100 µM | SK-MEL-5 > 100 µM | HOP-92 > 100 µM | CCRF-CEM > 100 µM | IGROV-1 > 100 µM | SK-MEL-2 > 100 µM | SN12C > 100 µM | RXF 393 > 100 µM | UACC-257 > 100 µM

NC1=NS(=O)(=O)Nc2nc(-c3ccc(Cl)cc3)c(-c3ccc(Cl)cc3)nc21
inactive: SNB-75 > 100 µM | OVCAR-3 > 100 µM | LOX IMVI 29.3 µM | OVCAR-5 > 100 µM | KM12 > 100 µM | SNB-19 > 100 µM | UO-31 > 100 µM | SW-620 > 100 µM | SK-MEL-5 > 100 µM | HOP-92 > 100 µM | CCRF-CEM 82.4 µM | IGROV-1 > 100 µM | SN12C > 100 µM | RXF 393 > 100 µM | UACC-257 > 100 µM

Nc1ccc(C(=O)O)c2[nH]c3ccccc3c(=O)c12
inactive: SNB-75 31.9 µM | LOX IMVI > 100 µM | OVCAR-5 > 100 µM | KM12 > 100 µM | A498 > 100 µM | SNB-19 > 100 µM | UO-31 > 100 µM | SW-620 > 100 µM | SK-MEL-5 > 100 µM | HOP-92 > 100 µM | CCRF-CEM 88.7 µM | IGROV-1 > 100 µM | SK-MEL-2 > 100 µM | SN12C > 100 µM | RXF 393 > 100 µM | UACC-257 > 100 µM

CC1=C(C(=O)Nc2c(C)cccc2C)C(c2ccc3c(c2)OCO3)C(C(=O)Nc2c(C)cccc2C)=C(C)N1
inactive: SNB-75 17.8 µM | OVCAR-3 36.3 µM | LOX IMVI 13.7 µM | OVCAR-5 19.1 µM | KM12 15.3 µM | SNB-19 15.3 µM | UO-31 16.9 µM | SW-620 18.2 µM | CCRF-CEM 7.36 µM | IGROV-1 4.2 µM | SN12C 16.7 µM | RXF 393 16.5 µM | UACC-257 16.6 µM

CCCCCC(CN1CCOCC1)C(=O)/C=C/c1ccccc1 (stereo not drawn)
inactive: SNB-75 7.13 µM | OVCAR-3 2.3 µM | LOX IMVI 1.37 µM | OVCAR-5 2.63 µM | KM12 1.76 µM | SNB-19 3.43 µM | UO-31 6.61 µM | SW-620 1.74 µM | SK-MEL-5 1.53 µM | HOP-92 2.19 µM | CCRF-CEM 1.94 µM | IGROV-1 3.37 µM | SN12C 2.94 µM | RXF 393 1.82 µM | UACC-257 2.96 µM

CCN(CC)CCCCC1CCN(CC(=O)N2c3ccccc3NC(=O)c3ccccc32)CC1
inactive: SNB-75 > 100 µM | OVCAR-3 > 100 µM | KM12 > 100 µM | A498 > 100 µM | SNB-19 > 100 µM | UO-31 > 100 µM | SW-620 > 100 µM | SK-MEL-5 > 100 µM | HOP-92 > 100 µM | CCRF-CEM 64.9 µM | SK-MEL-2 > 100 µM | SN12C > 100 µM | UACC-257 48.1 µM

[N-]=[N+]=NC1C(Cl)C(=O)NC(=O)N1[C@H]1C[C@H](O)[C@@H](CO)O1 (stereo partly drawn)
inactive: SNB-75 > 100 µM | OVCAR-3 > 100 µM | LOX IMVI > 100 µM | OVCAR-5 > 100 µM | KM12 > 100 µM | A498 > 100 µM | SNB-19 > 100 µM | UO-31 > 100 µM | SW-620 > 100 µM | HOP-92 > 100 µM | IGROV-1 > 100 µM | SK-MEL-2 > 100 µM | SN12C > 100 µM | RXF 393 > 100 µM | UACC-257 > 100 µM
